Data on 1 molecule can be found in article PMC4579270, “Identification and Characterization of an Irreversible Inhibitor of CDK2” (Chemistry & Biology, 2015).

Common to all, as to experiment: Dundee kinase screen re-test (standard format and 4 hour pre-incubation)
Holding throughout (format): biochemical

One assay concerns the target YES1 (Homo sapiens, UniProt P07947). The conditions noted are these: YES1, 0.5µM. Here is the method: (§1) Prior to determining its cellular activity, we carried out a screen to assess its selectivity against a panel of 131 protein kinases under conditions that would not distinguish between a reversible or irreversible mode of action. […] These 13 kinases and 29 additional kinases, selected for their known sensitivity to other inhibitors within the purine series, were then tested in a modified screening format in which the assay was repeated following a 4-hr pre-incubation (Table S3B). […] However, conformational flexibility around the active site may promote such an interaction with a residue from another part of the structure ([Martin et al., 2012]).
(§2) Table S3, Related to Figure 4. NCL-0006300 protein kinase selectivity. […]
(§3) Dundee protein kinase screen (Bain et al., 2007). […]
(§4) (B) Selected kinases were re-tested in the Dundee kinase screen against NU6300 at a single concentration of 0.5 µM both in the standard assay format and following a 4 hour pre-incubation in the presence of NU6300. Kinases which have very low activity after the 4 hour incubation so that results might not be wholly reliable are boxed in salmon. Kinases where the activity after a 4 hour pre-incubation is < 50% that in the standard assay format are highlighted in red.

In the next assay the target is CDK2-Cyclin A (Homo sapiens, UniProt P24941). The conditions noted are these: for remaining activity at 0.5 µM: CDK2/cyclin A. As to the method: as §1, §2, §3, §4
For the next assay, the target named is CLK2 (Homo sapiens, UniProt P49760). The conditions noted are these: CLK2, 0.5µM. Here is the method: as §1, §2, §3, §4
Chain of CLK2 (P49760 whole entry): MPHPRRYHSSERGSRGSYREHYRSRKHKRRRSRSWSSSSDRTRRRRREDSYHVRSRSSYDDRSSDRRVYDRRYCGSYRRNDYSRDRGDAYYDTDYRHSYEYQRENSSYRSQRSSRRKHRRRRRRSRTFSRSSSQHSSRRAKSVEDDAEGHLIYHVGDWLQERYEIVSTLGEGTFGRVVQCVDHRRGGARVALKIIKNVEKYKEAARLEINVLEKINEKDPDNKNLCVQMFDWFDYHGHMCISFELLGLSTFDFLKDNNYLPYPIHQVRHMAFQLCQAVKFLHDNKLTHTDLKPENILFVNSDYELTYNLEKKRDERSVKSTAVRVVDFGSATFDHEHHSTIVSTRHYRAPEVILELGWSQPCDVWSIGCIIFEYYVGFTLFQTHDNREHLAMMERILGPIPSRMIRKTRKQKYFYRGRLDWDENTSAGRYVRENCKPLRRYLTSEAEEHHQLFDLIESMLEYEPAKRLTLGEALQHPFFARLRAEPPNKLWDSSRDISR
In the next assay the target is T1, ERK8 (Homo sapiens, UniProt Q8TD08).
T1 sequence (Q8TD08 1-544): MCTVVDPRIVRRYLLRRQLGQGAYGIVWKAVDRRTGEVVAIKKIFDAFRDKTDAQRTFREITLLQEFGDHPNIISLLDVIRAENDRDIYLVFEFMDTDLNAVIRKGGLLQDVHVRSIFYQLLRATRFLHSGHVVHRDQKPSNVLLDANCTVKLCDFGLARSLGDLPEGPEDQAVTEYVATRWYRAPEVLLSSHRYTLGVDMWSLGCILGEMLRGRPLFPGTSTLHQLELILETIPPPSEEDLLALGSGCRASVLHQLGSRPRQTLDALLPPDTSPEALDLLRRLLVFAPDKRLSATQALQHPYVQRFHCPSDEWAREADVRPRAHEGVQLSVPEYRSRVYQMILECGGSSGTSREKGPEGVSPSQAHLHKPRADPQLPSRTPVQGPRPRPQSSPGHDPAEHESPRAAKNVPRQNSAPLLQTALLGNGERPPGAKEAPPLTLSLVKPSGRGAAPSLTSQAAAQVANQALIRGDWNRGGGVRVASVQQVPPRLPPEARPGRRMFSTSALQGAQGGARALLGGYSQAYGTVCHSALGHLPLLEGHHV
The following applies: ERK8, 0.5µM. As to the method: as §1, §2, §3, §4

Another assay deals with BTK (Homo sapiens, UniProt Q06187). Here is the method: as §1, §2, §3, §4
Chain of BTK (Q06187 whole entry): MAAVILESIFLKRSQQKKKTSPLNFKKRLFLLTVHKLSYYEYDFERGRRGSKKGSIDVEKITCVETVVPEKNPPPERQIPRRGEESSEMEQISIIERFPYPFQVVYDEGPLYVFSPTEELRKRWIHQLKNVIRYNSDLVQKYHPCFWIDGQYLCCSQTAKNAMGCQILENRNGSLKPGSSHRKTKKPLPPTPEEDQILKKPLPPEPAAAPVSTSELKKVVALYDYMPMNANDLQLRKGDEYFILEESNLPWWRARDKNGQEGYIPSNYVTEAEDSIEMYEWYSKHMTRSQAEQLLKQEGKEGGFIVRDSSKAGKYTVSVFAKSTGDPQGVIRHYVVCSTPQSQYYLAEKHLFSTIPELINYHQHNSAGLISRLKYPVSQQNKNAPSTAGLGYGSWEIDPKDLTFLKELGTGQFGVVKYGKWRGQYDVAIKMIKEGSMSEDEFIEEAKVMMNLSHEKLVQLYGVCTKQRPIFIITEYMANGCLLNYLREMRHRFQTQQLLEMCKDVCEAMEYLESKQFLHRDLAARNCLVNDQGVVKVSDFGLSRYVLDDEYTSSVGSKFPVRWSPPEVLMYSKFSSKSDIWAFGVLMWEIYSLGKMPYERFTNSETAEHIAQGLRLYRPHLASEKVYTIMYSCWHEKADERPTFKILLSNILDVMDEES
The target of the next assay is T2, ASK1 (Homo sapiens, UniProt Q99683).
T2 sequence (Q99683 1-1374): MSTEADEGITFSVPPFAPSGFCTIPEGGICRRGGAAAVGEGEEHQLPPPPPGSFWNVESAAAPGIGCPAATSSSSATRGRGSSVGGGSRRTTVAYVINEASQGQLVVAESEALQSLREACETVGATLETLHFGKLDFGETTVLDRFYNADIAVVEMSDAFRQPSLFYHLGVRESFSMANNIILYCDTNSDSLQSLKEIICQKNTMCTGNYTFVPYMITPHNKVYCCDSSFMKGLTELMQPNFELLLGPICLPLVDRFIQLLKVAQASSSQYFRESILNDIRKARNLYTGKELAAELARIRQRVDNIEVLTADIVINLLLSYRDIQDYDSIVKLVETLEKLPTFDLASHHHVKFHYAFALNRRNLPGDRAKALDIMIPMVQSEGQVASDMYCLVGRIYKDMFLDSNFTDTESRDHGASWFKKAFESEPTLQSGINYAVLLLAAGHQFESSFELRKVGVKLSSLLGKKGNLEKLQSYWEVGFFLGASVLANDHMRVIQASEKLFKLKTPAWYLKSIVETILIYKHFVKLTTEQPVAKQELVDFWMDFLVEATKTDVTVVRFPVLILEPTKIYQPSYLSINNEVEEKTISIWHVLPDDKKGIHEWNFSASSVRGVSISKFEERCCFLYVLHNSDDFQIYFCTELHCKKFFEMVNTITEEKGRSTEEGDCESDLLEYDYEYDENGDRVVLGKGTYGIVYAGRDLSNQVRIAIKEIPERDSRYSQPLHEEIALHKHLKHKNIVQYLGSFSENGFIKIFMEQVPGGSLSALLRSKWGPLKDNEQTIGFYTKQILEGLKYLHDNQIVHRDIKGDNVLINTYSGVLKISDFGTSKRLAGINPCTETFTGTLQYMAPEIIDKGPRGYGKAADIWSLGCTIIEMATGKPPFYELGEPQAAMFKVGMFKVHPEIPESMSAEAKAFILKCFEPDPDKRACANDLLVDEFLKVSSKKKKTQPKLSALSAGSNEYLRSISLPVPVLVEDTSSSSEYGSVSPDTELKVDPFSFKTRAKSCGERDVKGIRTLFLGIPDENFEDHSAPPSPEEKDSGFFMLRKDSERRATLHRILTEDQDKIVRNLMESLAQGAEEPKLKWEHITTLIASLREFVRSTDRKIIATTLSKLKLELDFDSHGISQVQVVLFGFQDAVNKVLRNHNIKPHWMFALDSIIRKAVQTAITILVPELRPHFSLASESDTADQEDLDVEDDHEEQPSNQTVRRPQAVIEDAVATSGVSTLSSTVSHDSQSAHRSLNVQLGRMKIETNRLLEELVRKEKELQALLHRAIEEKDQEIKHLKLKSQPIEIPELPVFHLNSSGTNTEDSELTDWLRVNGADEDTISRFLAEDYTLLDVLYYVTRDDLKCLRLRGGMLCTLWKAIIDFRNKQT
The conditions noted are these: ASK1, 0.5µM. As to the method: as §1, §2, §3, §4

The mark [1] stands for this setting: 4hr RT preincubation, read-out: %Remaining activity at 0.5µM NU6300 - 4hr RT preincubation.
[2] abbreviates: usual format, read-out: %Remaining activity at 0.5µM NU6300 - Usual assay format.

Read-outs that look alike come from different tables or passages of the source.

Usually remaining activity stands for the signal under treatment as a percentage of the control signal.

Chain of YES1 (P07947 whole entry): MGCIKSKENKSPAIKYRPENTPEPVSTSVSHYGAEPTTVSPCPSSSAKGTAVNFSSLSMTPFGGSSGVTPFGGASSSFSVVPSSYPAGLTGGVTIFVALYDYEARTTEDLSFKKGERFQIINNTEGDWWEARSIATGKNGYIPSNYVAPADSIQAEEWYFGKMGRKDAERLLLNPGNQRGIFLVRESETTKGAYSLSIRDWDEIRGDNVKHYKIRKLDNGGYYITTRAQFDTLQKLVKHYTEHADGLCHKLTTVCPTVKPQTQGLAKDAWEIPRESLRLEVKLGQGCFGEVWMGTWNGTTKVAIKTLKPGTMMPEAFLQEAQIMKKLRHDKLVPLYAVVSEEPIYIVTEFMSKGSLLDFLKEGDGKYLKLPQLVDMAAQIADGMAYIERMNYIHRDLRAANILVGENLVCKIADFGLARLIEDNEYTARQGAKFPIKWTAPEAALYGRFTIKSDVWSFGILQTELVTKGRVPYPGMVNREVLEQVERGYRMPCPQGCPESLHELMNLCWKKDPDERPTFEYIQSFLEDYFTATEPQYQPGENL

As to `C=CS(=O)(=O)c1ccc(Nc2nc(OCC3CCCCC3)c3nc[nH]c3n2)cc1` [NU6300, 6-(cyclohexylmethoxy)-N-(4-(vinylsulfonyl)phenyl)-9H-purin-2-amine], the remaining activity at 0.5 µM at YES1 (setting [1]) is 135%; on YES1 (setting [2]), 43%; at CDK2-Cyclin A (setting [1]), 9%; at CDK2-Cyclin A (setting [2]), 26%; on CLK2 (setting [1]), 104%; on CLK2 (setting [2]), 35%. Also, the remaining activity at 0.5 µM came out at 68% on ERK8 (setting [1]); 20% on ERK8 (setting [2]); 28% at BTK (setting [1]); 18% at BTK (setting [2]); 102% on ASK1 (setting [1]); 89% at ASK1 (setting [2]). The “additional loss of activity after pre-incubation” value on CDK2-Cyclin A (CDK2, 4-hr pre-incubation vs usual format, 0.5 µM) was above 50%.
